Assay results: US9145392B2, “Imidazole amines as modulators of kinase activity” (Merck Patent GmbH, priority 2011, dated 2015)

Key:
His-AKT (Full Length) = His-AKT (Full Length) (Homo sapiens (Human), UniProt P31749); assay: AKT enzyme assay; assay type: biochemical; conditions: read-out: IC50 AKT
Description: A TTP Mosquito liquid handling instrument is used to place 125n1 of the appropriate concentration of inhibitor in 100% DMSO (for a dose response curve calculation) into each well of a 384-well plate.
The reaction is incubated for 90 min at 25 C, and then stopped by the addition of 70 μl of Stop buffer (100 mM HEPES pH 7.5, 0.015% Brij-35, 10 mM EDTA (Sigma, E7889)).
The plate is read on a Caliper LC 3000 in an Off-Chip mobility shift assay format, using the following parameters for a 12-sipper chip: screening pressure −2.3 psi, upstream voltage −500, and downstream voltage −3000. These conditions cause unphosphorylated substrate and phosphorylated product peptide to resolve as separate peaks allowing direct measurement of percentage of conversion of substrate to product. The percent conversion can be plotted against concentration of inhibitor to produce a sigmoidal dose response curve, from which an IC50 can be calculated.

P70S6K (T412E mutant) = P70S6K (T412E mutant) (Homo sapiens (Human), UniProt P23443, T412E); assay: P70S6K enzyme assay; assay type: biochemical; conditions: read-out: IC50 p70S6K
Summary of the method: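 Read-out is the substrate/phosphopeptide ratio from mobility-shift electrophoresis on a LabChip 3000.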

Chain of P70S6K (T412E mutant) (P23443 whole entry T412E): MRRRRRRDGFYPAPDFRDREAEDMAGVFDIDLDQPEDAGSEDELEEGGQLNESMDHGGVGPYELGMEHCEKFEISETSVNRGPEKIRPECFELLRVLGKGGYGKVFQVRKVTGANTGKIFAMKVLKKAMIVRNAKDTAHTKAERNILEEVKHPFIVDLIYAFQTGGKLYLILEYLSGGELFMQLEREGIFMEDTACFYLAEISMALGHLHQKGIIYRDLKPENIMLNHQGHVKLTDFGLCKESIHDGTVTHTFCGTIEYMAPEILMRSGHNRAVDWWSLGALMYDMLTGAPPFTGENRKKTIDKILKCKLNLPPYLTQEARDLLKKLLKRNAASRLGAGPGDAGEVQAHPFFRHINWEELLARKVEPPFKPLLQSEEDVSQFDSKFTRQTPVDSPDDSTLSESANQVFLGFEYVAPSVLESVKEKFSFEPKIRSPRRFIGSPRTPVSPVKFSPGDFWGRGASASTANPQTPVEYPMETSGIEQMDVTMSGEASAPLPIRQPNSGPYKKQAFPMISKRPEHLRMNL
Chain of His-AKT (Full Length) (P31749 whole entry): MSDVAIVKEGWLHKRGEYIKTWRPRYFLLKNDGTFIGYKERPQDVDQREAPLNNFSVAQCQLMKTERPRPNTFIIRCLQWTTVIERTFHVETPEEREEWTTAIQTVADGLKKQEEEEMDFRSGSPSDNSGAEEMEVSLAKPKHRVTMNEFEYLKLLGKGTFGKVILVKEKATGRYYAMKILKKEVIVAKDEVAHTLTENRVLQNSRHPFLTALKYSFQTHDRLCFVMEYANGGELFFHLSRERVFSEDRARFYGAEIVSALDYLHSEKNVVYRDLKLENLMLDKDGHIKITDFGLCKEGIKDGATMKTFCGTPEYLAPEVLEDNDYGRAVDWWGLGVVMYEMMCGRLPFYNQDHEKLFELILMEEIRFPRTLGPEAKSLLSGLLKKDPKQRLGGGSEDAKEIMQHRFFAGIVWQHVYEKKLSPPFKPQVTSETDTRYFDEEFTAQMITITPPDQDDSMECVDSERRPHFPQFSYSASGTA

Row | SMILES | IC50 (His-AKT (Full Length)) [nM] | IC50 (P70S6K (T412E mutant)) [nM]
1 | Nc1ncnc(N2CCC(c3nc(-c4ccc(F)c(C(F)(F)F)c4)cn3CC3CNC3)CC2)c1Cl [Compound 148, 6-(4-(1-(azetidin-3-ylmethyl)-4-(4-fluoro-3-(trifluoromethyl)phenyl)-1H-imidazol-2-yl)piperidin-1-yl)-5-chloropyrimidin-4-amine] | 16.5 | 4.8
2 | Nc1ncnc(N2CCC(c3nc(-c4ccc(F)c(C(F)(F)F)c4)cn3CCN3CCCC3)CC2)c1F [Compound 211] | 23 | 23
3 | CCOc1c(N)ncnc1N1CCC(c2nc(-c3ccc(F)c(C)c3)cn2CC2CNC2)CC1 [Compound 185, 6-(4-(1-(azetidin-3-ylmethyl)-4-(4-fluoro-3-methylphenyl)-1H-imidazol-2-yl)piperidin-1-yl)-5-ethoxypyrimidin-4-amine] | 6.6 | 2.2
4 | CCc1c(N)ncnc1N1CCC(c2nc(-c3cncc(C(F)(F)F)c3)cn2CCN2CCC2)CC1 [Compound 99, 6-(4-(1-(2-(azetidin-1-yl)ethyl)-4-(5-(trifluoromethyl)pyridin-3-yl)-1H-imidazol-2-yl)piperidin-1-yl)-5-ethylpyrimidin-4-amine] | 18 | 4.5
5 | COCCN(C)CCn1cc(-c2ccc(F)c(C(F)(F)F)c2)nc1C1CCN(c2ncnc(N)c2C(N)=O)CC1 [Compound 366, 4-Amino-6-[4-(4-(4-fluoro-3-trifluoromethyl-phenyl)-1-{2-[(2-methoxy-ethyl)-methyl-amino]-ethyl}-1H-imidazol-2-yl)-piperidin-1-yl]-pyrimidine-5-carboxylic acid amide] | 440 | 9.2
6 | Cn1cc(-c2ccc(F)c(C(F)(F)F)c2)nc1C1CCN(c2ncnc(N)c2-c2ccc(N)nc2)CC1 [Compound 40, 5-(6-Amino-pyridin-3-yl)-6-{4-[4-(4-fluoro-3-trifluoromethyl-phenyl)-1-methyl-1H-imidazol-2-yl]-piperidin-1-yl}-pyrimidin-4-ylamine] | 2700 | 2.3
7 | COc1ccc(-c2cn(CCN3CCC3)c(C3CCN(c4ncnc(N)c4C#N)CC3)n2)cc1F [Compound 321] | 59 | 2.6
8 | CCc1c(N)ncnc1N1CCC(c2nc(-c3ccnc(C(C)C)c3)cn2CCN2CCC2)CC1 [Compound 179, 6-(4-(1-(2-(azetidin-1-yl)ethyl)-4-(2-isopropylpyridin-4-yl)-1H-imidazol-2-yl)piperidin-1-yl)-5-ethylpyrimidin-4-amine] | 4.2 | 1.9
9 | Cc1cc(-c2cn(CCN3CCC3)c(C3CCN(c4ncnc(N)c4C#N)CC3)n2)ccc1F [Compound 122, 4-amino-6-(4-(1-(2-(azetidin-1-yl)ethyl)-4-(4-fluoro-3-methylphenyl)-1H-imidazol-2-yl)piperidin-1-yl)pyrimidine-5-carbonitrile] | 2 | 0.7
10 | CCN(CCn1cc(-c2ccc(F)c(C)c2)nc1C1CCN(c2ncnc(N)c2C#N)CC1)C(C)C [Compound 327] | 2.8 | 5.2
11 | N#Cc1c(N)ncnc1N1CCC(c2nc(-c3cccc(C(F)(F)F)c3)cn2CCN2CCCC2)CC1 [Compound 310] | 7.6 | 2.3
12 | Nc1ncnc(N2CCC(c3nc(-c4ccc(F)cc4)cn3CCN3CCCC3)CC2)c1C1CCC1 [Compound 256] | 11 | 6.5
13 | CCOc1c(N)ncnc1N1CCC(c2nc(-c3ccc(F)c(C)c3)cn2CCN2CCCC2)CC1 [Compound 298] | 6.6 | 6.8
14 | Nc1ncnc(N2CCC(c3nc(-c4ccc(F)cc4)cn3CCN3CCCC3)CC2)c1Br [Compound 227] | 2.9 | 1.4
15 | C=Cc1c(N)ncnc1N1CCC(c2nc(-c3ccc(F)c(F)c3)cn2CCN2CCCC2)CC1 [Compound 242] | 9.7 | 1.4
16 | FC(F)(F)c1cccc(-c2c[nH]c(C3CCN(c4ncncc4Br)CC3)n2)c1 [Compound 4, 5-Bromo-4-{4-[4-(3-trifluoromethyl-phenyl)-1H-imidazol-2-yl]-piperidin-1-yl}-pyrimidine] | 6100 | 31.9
17 | CCOc1c(N)ncnc1N1CCC(c2nc(-c3ccc(F)c(C)c3)cn2CCN(C)C)CC1 [Compound 293] | 1.7 | 1
18 | CCOc1c(N)ncnc1N1CCC(c2nc(-c3ccc(F)c(C(F)(F)F)c3)cn2CCNC(C)C)CC1 [Compound 398, 5-Ethoxy-6-{4-[4-(4-fluoro-3-trifluoromethyl-phenyl)-1-(2-isopropylamino-ethyl)-1H-imidazol-2-yl]-piperidin-1-yl}-pyrimidin-4-ylamine] | 1.5 | 2.1

Row | SMILES | IC50 (His-AKT (Full Length)) [nM] | IC50 (P70S6K (T412E mutant)) [nM]
19 | Cc1ccc(-c2cn(CCN3CCC3)c(C3CCN(c4ncnc(N)c4C(N)=O)CC3)n2)cc1C(F)(F)F [Compound 340] | 420 | 4
20 | N#Cc1c(N)ncnc1N1CCC(c2nc(-c3ccc(F)c(C(F)(F)F)c3)cn2CC2CNC2)CC1 [Compound 141, 4-amino-6-(4-(1-(azetidin-3-ylmethyl)-4-(4-fluoro-3-(trifluoromethyl)phenyl)-1H-imidazol-2-yl)piperidin-1-yl)pyrimidine-5-carbonitrile] | 64.5 | 13
21 | C=Cc1c(N)ncnc1N1CCC(c2nc(-c3cccc(F)c3)cn2CCN2CCCC2)CC1 [Compound 240] | 21 | 0.9
22 | Nc1ncnc(N2CCC(c3nc(-c4ccc(F)c(C(F)(F)F)c4)cn3CCN3CCCC3)CC2)c1-c1ccc(F)cc1 [Compound 57] | 140 | 8.2
23 | Nc1ncnc(N2CCC(c3nc(-c4ccc(F)c(F)c4)cn3CCN3CCCC3)CC2)c1C1CCC1 [Compound 255] | 9.4 | 6.9
24 | Cc1cc(-c2cn(CCO)c(C3CCN(c4ncnc(N)c4C(N)=O)CC3)n2)ccc1F [Compound 393, 4-Amino-6-{4-[4-(4-fluoro-3-methyl-phenyl)-1-(2-hydroxy-ethyl)-1H-imidazol-2-yl]-piperidin-1-yl}-pyrimidine-5-carboxylic acid amide] | 47 | 2.8
25 | N#Cc1c(N)ncnc1N1CCC(c2nc(-c3ccc(F)c(Cl)c3)cn2CCN2CCCC2)CC1 [Compound 307] | 1.5 | 0.8
26 | CCc1c(N)ncnc1N1CCC(c2nc(-c3ccc(F)c(C(F)(F)F)c3)cn2CCN2CCCCC2)CC1 [Compound 276] | 9.3 | 2.8
27 | CC(C)(C)c1cc(-c2cn(CCN3CCC3)c(C3CCN(c4ncnc(N)c4C(N)=O)CC3)n2)ccn1 [Compound 343] | 170 | 5.5
28 | CCc1c(N)ncnc1N1CCC(c2nc(-c3ccc(F)cc3)cn2CCN2CCCC2)CC1 [Compound 232] | 20 | 2.3
29 | Cc1ccc(-c2cn(CCN3CCC3)c(C3CCN(c4ncnc(N)c4C#N)CC3)n2)cc1F [Compound 320] | 48 | 1.6
30 | N#Cc1c(N)ncnc1N1CCC(c2nc(-c3cnoc3)cn2CCN2CCC2)CC1 [Compound 132, 4-amino-6-(4-(1-(2-(azetidin-1-yl)ethyl)-4-(isoxazol-4-yl)-1H-imidazol-2-yl)piperidin-1-yl)pyrimidine-5-carbonitrile] | 220 | 23
31 | CCc1c(N)ncnc1N1CCC(c2nc(-c3ccc(F)cc3)cn2CCN2CCC3(COC3)C2)CC1 [Compound 201, 5-Ethyl-6-(4-{4-(4-fluoro-phenyl)-1-[2-(2-oxa-6-aza-spiro[3.4]oct-6-yl)-ethyl]-1H-imidazol-2-yl}-piperidin-1-yl)-pyrimidin-4-ylamine] | > 1000 | 16
32 | CCNCCn1cc(-c2ccc(F)c(C(F)(F)F)c2)nc1C1CCN(c2ncnc(N)c2OC(C)C)CC1 [Compound 174, 6-(4-(1-(2-(ethylamino)ethyl)-4-(4-fluoro-3-(trifluoromethyl)phenyl)-1H-imidazol-2-yl)piperidin-1-yl)-5-isopropoxypyrimidin-4-amine] | 0.52 | 0.44
33 | CC(C)N(C)CCn1cc(-c2ccc(F)c(C(F)(F)F)c2)nc1C1CCN(c2ncnc(N)c2C(N)=O)CC1 [Compound 361, 4-Amino-6-(4-{4-(4-fluoro-3-trifluoromethyl-phenyl)-1-[2-(isopropyl-methyl-amino)-ethyl]-1H-imidazol-2-yl}-piperidin-1-yl)-pyrimidine-5-carboxylic acid amide] | 11 | 6.4
34 | CNCCn1cc(-c2ccc(F)c(C)c2)nc1C1CCN(c2ncnc(N)c2-c2cn[nH]c2)CC1 [Compound 162, 6-(4-(4-(4-fluoro-3-methylphenyl)-1-(2-(methylamino)ethyl)-1H-imidazol-2-yl)piperidin-1-yl)-5-(1H-pyrazol-4-yl)pyrimidin-4-amine] | 21 | 5.9
35 | Nc1ncnc(N2CCC(c3nc(-c4ccc(C(F)(F)F)c(F)c4)cn3CCN3CCCC3)CC2)c1Cl [Compound 235] | 1000 | 10
36 | C=Cc1c(N)ncnc1N1CCC(c2nc(-c3ccc(F)c(C(F)(F)F)c3)cn2CC2CNC2)CC1 [Compound 183, 6-(4-(1-(azetidin-3-ylmethyl)-4-(4-fluoro-3-(trifluoromethyl)phenyl)-1H-imidazol-2-yl)piperidin-1-yl)-5-vinylpyrimidin-4-amine] | 74 | 12
